Measured values reported in patent publication US7462613B2, “Pyridazinone derivatives as pharmaceuticals and pharmaceutical compositions containing them” (SANOFI-AVENTIS Deutschland GmbH, priority 2002, dated 2008).
pIC50: −log10 of the molar value.

target: CDK2/Cyclin E kinase (Homo sapiens, UniProt P24941); assay: CDK2/Cyclin E Flashplate Assay: 96-Well Format; assay type: biochemical; conditions: streptavidin-coated flashplate; biotinylated-Rb peptide substrate 10 μM; 33P-ATP/ATP 1 μM; CDK2/Cyclin E 20 nM; 30 minutes at 30° C.; 1% DMSO
Experimental: Functional Measurements for Determination of IC50-Values
CDK2/Cyclin E Flashplate Assay: 96-Well Format
A 96-well streptavidin-coated flashplate was used to assay potency of compounds according formula (I) against CDK2/Cyclin E kinase. To carry out the assay, biotinylated-Rb peptide substrate (Biotin-[…]-OH) was solubilized at 1 mM in kinase buffer (Hepes 50 mM, NaCl 1 mM, MgCl2 5 mM pH 7.5) as a stock solution conserved at −20° C. in aliquots of 110 μl. The day of the experiment, an aliquot of this solution was thawed and diluted to 14.3 μM in kinase buffer, containing 1 mM dithiothreitol (DTT) added in the buffer at the same time.
70 μl of this solution was added in each well of the flashplate in order to achieve a final concentration of 10 μM (100 μl reactionnal volume). Serial dilutions of inhibitors were prepared in DMSO from 10 mM stock solutions in order to achieve 1000 μM, 333.3 μM, 111.1 μM, 37.03 μM, 12.35 μM, 4.11 μM and 1.37 μM and all were rediluted in kinase buffer+DTT in order to achieve 100 μM, 33.3 μM, 11.1 μM, 3.7 μM, 1.24 μM, 0.41 μM and 0.14 μM in DMSO 10% buffer (vol/vol). 10 μl of each, of these solutions (or 10 μl of buffer+DTT for controls) were transferred to the testplate wells in order to achieve 10 μM, 3.33 μM, 1.11 μM, 0.37 μM, 0.12 μM, 0.04. μM and 0.01 μM as final concentrations, 1% DMSO (vol/vol). In each well, 10 μl of a solution of a mix of ^33PyATP/ATP were added in order to achieve 1 μM final concentration and a total of 1 μCi. The kinase reaction was initiated by addition of 10 μl of a solution at 200 nM of CDK2/Cyclin E in kinase buffer+DTT (or buffer+DTT for blanks) in order to achieve 20 nM final concentration. After addition of each reagent, the test-plate was shakened. The plates were incubated 30 minutes at 30° C. with a shaking at 650 rpm. At the end of the incubation, the plates were washed 3 times with 300 μl of PBS (without calcium and magnesium) per well. The incorporation of ^33P to the peptide was measured by scintillation counting.

Compound	pIC50
O=C(NCc1ccc(Cl)cc1Cl)c1cc(-c2ccncc2)n[nH]c1=O [Example 2, N-(2,4-dichlorobenzyl)-3-oxo-6-pyridin-4-yl-2,3-dihydropyridazine-4-carboxamide]	6.04
CCOC(=O)CCNC(=O)c1cc(-c2ccncc2)n[nH]c1=O [Example 13, Ethyl 3-[(3-oxo-6-pyridin-4-yl-2,3-dihydropyridazine-4-carbonyl)amino]propionate]	6.12
O=C(NCc1ccc(Cl)c(Cl)c1)c1cc(-c2ccncc2)n[nH]c1=O [Example 16, N-(3,4-dichlorobenzyl)-3-oxo-6-pyridin-4-yl-2,3-dihydropyridazine-4-carboxamide]	6.76
CNc1nccc(-c2cc(C(=O)NCc3ccc(Cl)cc3)c(=O)[nH]n2)n1 [Example 34, 6-(2-Methylamino-pyrimidin-4-yl)-3-oxo-2,3-dihydro-pyridazine-4-carboxylic acid 4-chloro-benzylamide]	7.52
O=C(NCc1ccc(Cl)cc1)c1cc(-c2cn[nH]c2)n[nH]c1=O [Example 39, 3-Oxo-6-(1H-pyrazol-4-yl)-2,3-dihydro-pyridazine-4-carboxylic acid 4-chloro-benzylamide]	6.46
COc1cc(-c2cc(C(=O)NCc3ccc(Cl)cc3)c(=O)[nH]n2)ccc1O [Example 41, 6-(4-Hydroxy-3-methoxy-phenyl)-3-oxo-2,3-dihydro-pyridazine-4-carboxylic acid 4-chloro-benzylamide]	6.83
O=C(NCc1ccc2c(c1)OCO2)c1cc(-c2ccncc2)n[nH]c1=O [Example 84, 3-Oxo-6-pyridin-4-yl-2,3-dihydro-pyridazine-4-carboxylic acid(benzo[1,3]dioxol-5-ylmethyl)-amide;compound with trifluoro-acetic acid]	6.66
O=C(NCc1ccc(F)c(Br)c1)c1cc(-c2ccncc2)n[nH]c1=O [Example 93, 3-Oxo-6-pyridin-4-yl-2,3-dihydro-pyridazine-4-carboxylic acid 3-bromo-4-fluoro-benzylamide;compound with trifluoro-acetic acid]	6.46
CS(=O)(=O)c1ccc(CNC(=O)c2cc(-c3ccncc3)n[nH]c2=O)cc1 [Example 98, 3-Oxo-6-pyridin-4-yl-2,3-dihydro-pyridazine-4-carboxylic acid 4-methanesulfonyl-benzylamide; compoundwith trifluoro-acetic acid]	6.18
O=C(NCc1ccc(Cl)cc1F)c1cc(-c2ccncc2)n[nH]c1=O [Example 116, 3-Oxo-6-pyridin-4-yl-2,3-dihydro-pyridazine-4-carboxylic acid 4-chloro-2-fluoro-benzylamide;compound with trifluoro-acetic acid]	6.10
Cc1ccc(CNC(=O)c2cc(-c3ccncc3)n[nH]c2=O)s1 [Example 139, 3-Oxo-6-pyridin-4-yl-2,3-dihydro-pyridazine-4-carboxylic acid (5-methyl-thiophen-2-ylmethyl)-amide; compound withtrifluoro-acetic acid]	6.45
O=C(NCc1ccc(Cl)s1)c1cc(-c2ccncc2)n[nH]c1=O [Example 142, 3-Oxo-6-pyridin-4-yl-2,3-dihydro-pyridazine-4-carboxylic acid (5-chloro-thiophen-2-ylmethyl)-amide; compound withtrifluoro-acetic acid]	6.45
O=C(NCc1ccc(Cl)cc1)c1cc(-c2ccnc(NCCN3CCOCC3)n2)n[nH]c1=O [Example 175, 6-[2-(2-Morpholin-4-yl-ethylamino)-pyrimidin-4-yl]-3-oxo-2,3-dihydro-pyridazine-4-carboxylicacid 4-chloro-benzylamide; compoundwith trifluoro-acetic acid]	7.57

Next, values leading:

pIC50	Compound
6.24	O=C(NCc1ccc(Cl)cc1)c1cc(-c2ccncc2)n[nH]c1=O [Example 4, N-(4-chlorobenzyl)-3-oxo-6-pyridin-4-yl-2,3-dihydropyridazine-4-carboxamide-6]
6.27	O=C(NCc1ccc(O)cc1)c1cc(-c2ccncc2)n[nH]c1=O [Example 18, N-(4-hydroxybenzyl)-3-oxo-6-pyridin-4-yl-2,3-dihydropyridazine-4-arboxamide]
6.24	O=C(NCCCCO)c1cc(-c2ccncc2)n[nH]c1=O [Example 31, 3-Oxo-6-pyridin-4-yl-2,3-dihydro-pyridazine-4-carboxylic acid (4-hydroxy-butyl)-amide]
6.92	O=C(NCc1ccc(Cl)cc1)c1cc(-c2ccc(O)cc2)n[nH]c1=O [Example 40, 6-(4-Hydroxy-phenyl)-3-oxo-2,3-dihydro-pyridazine-4-carboxylicacid 4-chloro-benzylamide]
6.76	COc1cc(-c2cc(C(=O)NCCCc3cccnc3)c(=O)[nH]n2)ccc1O [Example 49, 6-(4-Hydroxy-3-methoxy-phenyl)-3-oxo-2,3-dihydro-pyridazine-4-carboxylic acid (3-pyridin-3-yl-propyl)-amide]
6.28	O=C(NCCCc1ccccc1)c1cc(-c2ccncc2)n[nH]c1=O [Example 66, 3-Oxo-6-pyridin-4-yl-2,3-dihydro-pyridazine-4-carboxylic acid (3-phenyl-propyl)-amide; compoundwith trifluoro-acetic acid]
6.10	O=C(NCc1ccc(Br)cc1)c1cc(-c2ccncc2)n[nH]c1=O [Example 75, 3-Oxo-6-pyridin-4-yl-2,3-dihydro-pyridazine-4-carboxylic acid 4-bromo-benzylamide; compoundwith trifluoro-acetic acid]
6.26	COc1ccc(CNC(=O)c2cc(-c3ccncc3)n[nH]c2=O)cc1 [Example 83, 3-Oxo-6-pyridin-4-yl-2,3-dihydro-pyridazine-4-carboxylic acid 4-methoxy-benzylamide;compound with trifluoro-acetic acid]
6.79	O=C(NCCc1ccccc1Cl)c1cc(-c2ccncc2)n[nH]c1=O [Example 103, 3-Oxo-6-pyridin-4-yl-2,3-dihydro-pyridazine-4-carboxylic acid [2-(2-chloro-phenyl)-ethyl]-amide; compound withtrifluoro-acetic acid]
6.44	O=C(NCc1ccc(C(F)(F)F)cc1)c1cc(-c2ccncc2)n[nH]c1=O [Example 112, 3-Oxo-6-pyridin-4-yl-2,3-dihydro-pyridazine-4-carboxylic acid 4-trifluoromethyl-benzylamide; compoundwith trifluoro-acetic acid]
6.28	O=C(NCc1ccc(F)cc1)c1cc(-c2ccncc2)n[nH]c1=O [Example 125, 3-Oxo-6-pyridin-4-yl-2,3-dihydro-pyridazine-4-carboxylic acid 4-fluoro-benzylamide; compoundwith trifluoro-acetic acid]
6.88	O=C(NCCCc1cccnc1)c1cc(-c2ccc(O)cc2)n[nH]c1=O [Example 164, 6-(4-Hydroxy-phenyl)-3-oxo-2,3-dihydro-pyridazine-4-carboxylicacid (3-pyridin-3-yl-propyl)-amide]
6.90	C[C@@H](Nc1nccc(-c2cc(C(=O)NCCCc3cccnc3)c(=O)[nH]n2)n1)c1ccccc1 [Example 167, R-3-Oxo-6-[2-(1-phenyl-ethylamino)-pyrimidin-4-yl]-2,3-dihydro-pyridazine-4-carboxylic acid (3-pyridin-3-yl-propyl)-amide]
